Measurements taken from US5164391A, “Hydantoin derivatives for treating complications of diabetes and circulatory diseases” (priority 1989, dated 1992).
Where two headings read alike, the source gives them in different places.

Tests used:
left atrium = experiment: Action to heart of guinea pig: left atrium (contraction power); set-up: species or system Hartley guinea pigs
Experimental: (§1) Hartley guinea pigs (body weight of 300-400 g) were rendered unconscious by knocking their head and fixed upwardly to exenterate their heart. […] The vessel was previously filled with the Krebs-Henseleit solution and the said mixed gas was continuously fed therein.
(§2) Samples were prepared by separating from a ventricular muscle a right and left atrium, along an auricloventricular furrow or groove from the center-line of the right and left auricles.
The atrium was driven by contacting it with a platinum bipolar electrode attached to the cellfin and by stimulating the same with a rectangular pulse (1 Hz, 1 msec, 10 V). A movement of the sample was recorded by connecting the sample to a recorder through a silk thread and a FD pick-up.

right atrium = experiment: Action to heart of guinea pig: right atrium (pulsations); set-up: species or system Hartley guinea pigs; conditions: for inhibition at 10 µM / inhibition at 100 µM: Cavia porcellus, read-out: Pulsation;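 for Pulsation: Dash means no recognizable influence on pulsation rate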
Experimental: as §1, §2
A contraction of the sample, due to a compound to be tested, was recorded through an FD pick-up. Concurrently, pulsations were input to a measuring unit to count and record number of the pulsations.

platelet = experiment: Inhibition of platelet agglutination (rat PRP); assay type: cell-based
Experimental: A blood was taken from a descending aorta of the rat anesthetized with ethyl ether. To the blood, 3.8% aqueous sodium citrate was added by a volume of 1/3 and the resulting solution was centrifuged (1500 rpm) at 4° C. for 10 minutes to obtain a supernatant which was designated as "PRP (platelet rich plasma)". The remaining residue was centrifuged (3000 rpm) at 4° C. for 10 minutes to obtain a supernatant which was designated as "PPP (platelet poor plasma)". A stirrer bar and PRP (267 μl) were inserted in a cell and PPP (more than 300 μl) was charged in another cell. A transmissivity to PRP and PPP was measured and set as "0%" for the former case and as "100%" for the latter case.
After a preincubation for 1 minute, a compound to be tested was added by 3 μl and then an agglutination causing substance (collagen or ADP) was added by 30 μl at a time lapsed of 1 minute from the addition of testing compound. For a control group, 3 μl of dimethylsulfoxide was added, instead of the testing compound. A maximum value in transmissivity change after the addition of agglutination causing substance was determined and made as a platelet agglutination rate (%).

thoracic aorta = experiment: Action to the aorta of guinea pig (relaxation of contracted spiral samples); set-up: species or system Hartley guinea pigs; conditions: Cavia porcellus
Text: Hartley guinea pigs (body weight of 300-500 g) were rendered unconscious fainted by knocking their head and fixed upwardly. A thoracic aorta was taken out to prepare spiral samples, each having size of about 2×25 mm. The sample was suspended in a Magnus tube under a load of about 1 g and upper end of the sample was connected through a silk thread to a FD pick-up to record a change in isometric tension.
Composition of Krebs-Henseleit solution:
Prior to the experiment, the sample in the Magnus tube was left to stand, as it was, for 60 to 90 minutes and in such period of time, the Krebs-Henseleit solution was exchanged to fresh one at an interval of 20 to 30 minutes.
When the contraction of the sample became constant, the compound to be tested was gradually added in a amount starting at a concentration of 10^-8, to […] to observe the contraction of the sample. Finally, papaverine was added therein, so as to make its final concentration of 2×10^-5 g/ml, to check and record also the relaxing reaction or atony caused by the papaverine.

aldose reductase = aldose reductase (Rattus norvegicus, UniProt P07943); experiment: Inhibition to aldose reductase (method of Kador et al); assay type: biochemical; conditions: read-out: IC50 (50% Inhibitory Concentration)
Text: An ability for reducing or inhibiting activity of aldose reductase was checked, in accordance with the method of Kador et al as described in "Biophys.

[1] = Cavia porcellus, read-out: Contraction
[2] = agglutination caused by collagen, read-out: IC50 Collagen
[3] = 10^-5 (M), left atrium, 32°±1° C.
[4] = Cavia porcellus, 10^-4 (M), left atrium, 32°±1° C., read-out: Contraction
[5] = 10^-4 (M), right atrium, 32°±1° C.
[6] = 10^-5 (M), right atrium, 32°±1° C.
[7] = contraction by KCl 2.5×10^-2 M, 37° C., read-out: IC50 KCl contraction (50% relaxing)
[8] = contraction by norepinephrine 10^-6 g/ml, 37° C., read-out: IC50 N.E. contraction (50% relaxing)
[9] = agglutination caused by ADP, N.D. : not detected, read-out: IC50 ADP

In the case of CC(C)NCC(O)COc1cccc2ccccc12 (stereo not drawn) [A, Propranolol, reference compound], the inhibition at 10 µM (left atrium; [1]) is reported as > 20%, the inhibition at 100 µM (left atrium; [1]) is reported as > 20% and the inhibition at 10 µM (right atrium) is reported as > 20%. The inhibition at 100 µM (right atrium) was > 20%.

Compound CC(=O)Oc1ccccc1C(=O)O [Aspirin, reference compound] has an IC50 (platelet; [2]) of 210 µM.

In the case of CC(C(O)c1ccc(O)cc1)N1CCC(Cc2ccccc2)CC1 (stereo not drawn) [B, Ifenprodil, reference compound], the Contraction (left atrium; [3]) is reported as “-”, the inhibition at 100 µM (left atrium; [4]) is reported as 10 to 20% and the inhibition at 100 µM (right atrium; [5]) is reported as > 20%. For the same compound, the inhibition at 10 µM (right atrium; [6]) was > 20%.

For COc1cc(/C=C/C(=O)N2CCN(CC(=O)N3CCCC3)CC2)cc(OC)c1OC [Cinepazide, reference compound], the IC50 (thoracic aorta; read-out: IC50 KCl contraction (50% relaxing)) was 2000 µM and the IC50 (thoracic aorta; read-out: IC50 N.E. contraction (50% relaxing)) was 1000 µM.

With NNC(=O)[C@@H]1C[C@]2(NC(=O)NC2=O)c2cc(F)ccc2O1 [Example 1, (2S,4S)-6-Fluoro-2',5'-dioxospiro[chroman-4,4'-imidazolidine]-2-carbohydrazide] the IC50 (aldose reductase) was 0.038 µM, the IC50 (thoracic aorta; [7]) was 95 µM and the IC50 (thoracic aorta; [8]) was 2 µM.

In the case of CNNC(=O)[C@@H]1C[C@]2(NC(=O)NC2=O)c2cc(F)ccc2O1 [Example 2, (2S,4S)-6-Fluoro-2',5'-dioxospiro[chroman-4,4'-imidazolidine]-2-(N'-methyl)carbohydrazide], the IC50 (aldose reductase) is reported as 0.3 µM, the IC50 (thoracic aorta; [7]) is reported as > 1000 µM and the IC50 (thoracic aorta; [8]) is reported as > 1000 µM.

For O=C1NC(=O)[C@@]2(C[C@@H](C(=O)NNc3ccccc3)Oc3ccc(F)cc32)N1 [Example 3, (2S,4S)-6-Fluoro-2',5'-dioxospiro[chroman-4,4'-imidazolidine]-2-(N'-phenyl)carbohydrazide], the IC50 (aldose reductase) was 0.022 µM, the IC50 (thoracic aorta; [7]) was 30 µM and the IC50 (thoracic aorta; [8]) was 0.8 µM. The IC50 (platelet; [2]) was 140 µM, the Contraction (left atrium; [3]) was “-” and the inhibition at 100 µM (left atrium; [4]) was 10 to 20%. For the same compound, the Pulsation (right atrium; [5]) was “-” and the Pulsation (right atrium; [6]) was “-”.

For O=C1NC(=O)[C@@]2(C[C@@H](C(=O)NNc3ccc(Cl)cc3)Oc3ccc(F)cc32)N1 [Example 4, (2S,4S)-6-Fluoro-2',5'-dioxospiro[chroman-4,4'-imidazolidine]-2-(N'-4-chlorophenyl)carbohydrazide], the IC50 (aldose reductase) was 0.026 µM, the IC50 (thoracic aorta; [7]) was > 1000 µM and the IC50 (thoracic aorta; [8]) was > 1000 µM. For the same compound, the IC50 (platelet; [2]) was 180 µM, the Contraction (left atrium; [3]) was “-” and the inhibition at 100 µM (left atrium; [4]) was 10 to 20%. The Pulsation (right atrium; [6]) was “-” and the inhibition at 100 µM (right atrium; [5]) was 10 to 20%.

COc1ccc(NNC(=O)[C@@H]2C[C@]3(NC(=O)NC3=O)c3cc(F)ccc3O2)cc1 [Example 5, (2S,4S)-6-Fluoro-2',5'-dioxospiro[chroman-4,4'-imidazolidine]-2-(N'-4-methoxyphenyl)carbohydrazide] gave an IC50 (aldose reductase) of 0.044 µM, an IC50 (thoracic aorta; [7]) of 5 µM and an IC50 (thoracic aorta; [8]) of 30 µM. For the same compound, the IC50 (platelet; [2]) was 26 µM, the Contraction (left atrium; [3]) was “-” and the inhibition at 100 µM (left atrium; [4]) was 10 to 20%. For the same compound, the Pulsation (right atrium; [5]) was “-” and the Pulsation (right atrium; [6]) was “-”.

With O=C1NC(=O)[C@@]2(C[C@@H](C(=O)NNc3cccc4ccccc34)Oc3ccc(F)cc32)N1 [Example 6, (2S,4S)-6-Fluoro-2',5'-dioxospiro[chroman-4,4'-imidazolidine]-2-(N'-1-naphthyl)carbohydrazide] the IC50 (aldose reductase) was 0.013 µM, the IC50 (platelet; [2]) was 230 µM and the Contraction (left atrium; [3]) was “-”. For the same compound, the inhibition at 100 µM (left atrium; [4]) was 10 to 20%, the Pulsation (right atrium; [6]) was “-” and the inhibition at 100 µM (right atrium; [5]) was 10 to 20%.

With O=C1NC(=O)[C@@]2(C[C@@H](C(=O)NO)Oc3ccc(F)cc32)N1 [Example 7, (2S,4S)-6-Fluoro-2',5'-dioxospiro[chroman-4,4'-imidazolidine]-2-hydroxamic acid] the IC50 (aldose reductase) was 0.037 µM, the IC50 (thoracic aorta; [7]) was > 1000 µM and the IC50 (thoracic aorta; [8]) was > 1000 µM.

With O=C1NC(=O)[C@@]2(C[C@@H](C(=O)NCCN3CCN(CC=Cc4ccccc4)CC3)Oc3ccc(F)cc32)N1 [Example 8, (2S,4S)-N-[2-(4-Cinnamylpiperazin-1-yl)ethyl]-6-fluoro-2',5'-dioxospiro[chroman-4,4'-imidazolidine]-2-carboxamide] the IC50 (aldose reductase) was 0.22 µM, the IC50 (thoracic aorta; [7]) was > 1000 µM and the IC50 (thoracic aorta; [8]) was > 1000 µM. The IC50 (platelet; [2]) was 250 µM, the Contraction (left atrium; [3]) was “-” and the inhibition at 100 µM (left atrium; [4]) was 10 to 20%. For the same compound, the Pulsation (right atrium; [6]) was “-” and the inhibition at 100 µM (right atrium; [5]) was 10 to 20%.

In the case of COc1ccccc1N1CCN(CCNC(=O)[C@@H]2C[C@]3(NC(=O)NC3=O)c3cc(F)ccc3O2)CC1 [Example 9, (2S,4S)-N-{2-[4-(2-Methoxyphenyl)piperazin-1-yl]ethyl}-6-fluoro-2',5'-dioxospiro[chroman-4,4'-imidazolidine]-2-carboxamide], the IC50 (aldose reductase) is reported as 0.24 µM, the IC50 (thoracic aorta; [7]) is reported as > 1000 µM and the IC50 (thoracic aorta; [8]) is reported as > 1000 µM. The IC50 (platelet; [2]) was 660 µM, the Contraction (left atrium; [3]) was “-” and the inhibition at 100 µM (left atrium; [4]) was 10 to 20%. For the same compound, the Pulsation (right atrium; [5]) was “-” and the Pulsation (right atrium; [6]) was “-”.

With O=C1NC(=O)[C@@]2(C[C@@H](C(=O)NCCN3CCN(C(c4ccccc4)c4ccccc4)CC3)Oc3ccc(F)cc32)N1 [Example 10, (2S,4S)-N-{2-[4-(Diphenylmethyl)piperazin-1-yl]ethyl}-6-fluoro-2',5'-dioxospiro[chroman-4,4'-imidazolidine]-2-carboxamide] the IC50 (aldose reductase) was 0.15 µM, the IC50 (thoracic aorta; [7]) was 1.8 µM and the IC50 (thoracic aorta; [8]) was 100 µM. For the same compound, the IC50 (platelet; [9]) was 700 µM, the IC50 (platelet; [2]) was 410 µM and the Contraction (left atrium; 10^-4 (M), left atrium, 32°±1° C.) was “-”. The Contraction (left atrium; [3]) was “-”, the inhibition at 100 µM (right atrium; [5]) was > 20% and the inhibition at 10 µM (right atrium; [6]) was 10 to 20%.

O=C1NC(=O)[C@@]2(C[C@@H](C(=O)NCCN3CCC(Cc4ccccc4)CC3)Oc3ccc(F)cc32)N1 [Example 11, (2S,4S)-N-[2-(4-Benzylpiperidin-1-yl)ethyl]-6-fluoro-2'5'-dioxospiro[chroman-4,4'-imidazolidine]-2-carboxamide] showed an IC50 (aldose reductase) of 1.9 µM, an IC50 (thoracic aorta; [7]) of 1.9 µM and an IC50 (thoracic aorta; [8]) of 0.1 µM. For the same compound, the IC50 (platelet; [9]) was 370 µM, the IC50 (platelet; [2]) was 83 µM and the Contraction (left atrium; [3]) was “-”. For the same compound, the inhibition at 100 µM (left atrium; [4]) was 10 to 20%, the inhibition at 100 µM (right atrium; [5]) was > 20% and the inhibition at 10 µM (right atrium; [6]) was 10 to 20%.

COc1cc(C=CC(=O)N2CCN(CCNC(=O)[C@@H]3C[C@]4(NC(=O)NC4=O)c4cc(F)ccc4O3)CC2)cc(OC)c1OC [Example 12, (2S,4S)-N-{2-[4-(3,4,5-Trimethoxycinnamoyl)piperazin-1-yl]ethyl}-6-fluoro-2',5'-dioxospiro[chroman-4,4'-imidazolidine]-2-carboxamide] showed an IC50 (aldose reductase) of 0.15 µM, an IC50 (thoracic aorta; [7]) of 160 µM and an IC50 (thoracic aorta; [8]) of 30 µM. For the same compound, the Contraction (left atrium; [3]) was “-”, the inhibition at 100 µM (left atrium; [4]) was 10 to 20% and the Pulsation (right atrium; [5]) was “-”. The Pulsation (right atrium; [6]) was “-”.

Compound O=C1NC(=O)[C@@]2(C[C@@H](C(=O)NCCO[N+](=O)[O-])Oc3ccc(F)cc32)N1 [Example 13, (2S, 4S)-N-(2-Nitroxyethyl)-6-fluoro-2',5'-dioxospiro[chroman-4,4'-imidazolidine]-2-carboxamide] has an IC50 (aldose reductase) of 0.19 µM, an IC50 (thoracic aorta; [7]) of 60 µM and an IC50 (thoracic aorta; [8]) of 20 µM. The IC50 (platelet; [2]) was 240 µM.

O=C1NC(=O)[C@@]2(C[C@@H](C(=O)NCCn3ccnc3)Oc3ccc(F)cc32)N1 [Example 14, (2S,4S)-N-{2-[(Imidazol-1-yl)ethyl]}-6-fluoro-2',5'-dioxospiro[chroman-4,4'-imidazolidine]-2-carboxamide] was tested, and the IC50 (aldose reductase) was 0.65 µM, the IC50 (thoracic aorta; [7]) was > 1000 µM and the IC50 (thoracic aorta; [8]) was > 1000 µM.

COc1ccc2c(c1)c(CC(=O)O)c(C)n2C(=O)c1ccc(Cl)cc1 [Indomethacin, reference compound] gave an IC50 (platelet; [2]) of 68 µM.
